Our source for the IC50 and Activity values is ChEMBL document CHEMBL4819087, “Identification and optimization of 3-bromo-N'-(4-hydroxybenzylidene)-4-methylbenzohydrazide derivatives as mTOR inhibitors that induce autophagic cell death and apoptosis in triple-negative breast cancer” (Eur J Med Chem, 2021).

Assay [1] concerns MDA-MB-231. Put plainly: cells. Particulars: Homo sapiens, MDA-MB-231, 24 h.
Description: Antiproliferative activity against human MDA-MB-231 cells assessed as reduction in cell viability incubated for 24 hrs by MTT assay
The subject of the next assay is A549. Description: cells. As to conditions: Homo sapiens, A549, 24 h.
In assay [2] the test system is MDA-MB-231. Put plainly: Induction of autophagy in human MDA-MB-231 cells assessed as MDC positive ratio at 1 uM incubated for 6 hrs by MDC staining based flow cytometry analysis. The class given is functional. On the technique in general: A flow cytometer gives signals particle by particle.
In assay [3] the target is Serine/threonine-protein kinase mTOR (Homo sapiens, UniProt P42345). Put plainly: Inhibition of mTOR (unknown origin).
In a further assay the test system is MDA-MB-468. Description: cells. As to conditions: Homo sapiens, MDA-MB-468, 24 h.

Description for A549: Antiproliferative activity against human A549 cells assessed as reduction in cell viability incubated for 24 hrs by MTT assay
Description for MDA-MB-468: Antiproliferative activity against human MDA-MB-468 cells assessed as reduction in cell viability incubated for 24 hrs by MTT assay

In general, IC50 refers to the concentration that inhibits the measured activity by half. Consider `O=C(Nc1ccc(C(F)(F)F)cc1)Nc1cccc(F)c1`, for which the IC50 in the assay with MDA-MB-231 [1] was found to be 10.3 µM; in the assay on A549, 11.5 µM; in assay [3], 12.6 µM; in the assay on MDA-MB-468, 11.9 µM. Also, the Activity in the assay on MDA-MB-231 [2] was 7.22%.
For `C/C(=N\NC(=O)c1ccc(C)c(I)c1)c1ccncc1`, the half-maximal inhibitory concentration (IC50) is 9.08 µM in the assay on MDA-MB-231 [1], 11.3 µM with A549, 1.66 µM in assay [3] and 10.3 µM in the assay on MDA-MB-468. The Activity in the assay with MDA-MB-231 [2] is 16.25%.
Taken in the same sequence, the figures for `C/C(=N\NC(=O)c1ccc(C)c(Br)c1)c1ccc(N)cc1` were 9.91 µM, 13.6 µM, 7.3 µM, 12.1 µM and 18.9%.
Consider `O=C(NCc1cc(C(F)(F)F)cc(C(F)(F)F)c1)Nc1cccc(F)c1`, for which the concentration for half-maximal inhibition (IC50) with MDA-MB-231 [1] is 13.8 µM; in the assay on A549 it was 12.5 µM; in assay [3], 17.6 µM; in the assay with MDA-MB-468, 17.5 µM. Besides, in the assay with MDA-MB-231 [2], the Activity was 8.77%.
Consider `C/C(=N\NC(=O)c1ccc(C)c(Br)c1)c1ccc(C(F)(F)F)cc1`, for which the concentration for half-maximal inhibition (IC50) in the assay on MDA-MB-231 [1] came to 9.3 µM; in the assay with A549, 9.07 µM; in assay [3] it was 4.76 µM; with MDA-MB-468, 9.91 µM. In addition, the Activity with MDA-MB-231 [2] turned out to be 18.65%.
On to `O=C(Nc1nc2ccccc2[nH]1)c1ccc(OC(F)(F)F)cc1`, for which the half-maximal inhibitory concentration (IC50) was determined as 29 µM in the assay on MDA-MB-231 [1], 27.5 µM in the assay with A549, 3.99 µM in assay [3] and 24.1 µM with MDA-MB-468. For the same molecule, in the assay on MDA-MB-231 [2], the Activity is reported as 11.22%.
As for `C/C(=N\NC(=O)c1cccc(Br)c1)c1ccc(C(=O)Nc2cc(N3CCOCC3)ccn2)cc1`, the IC50 turned out to be 9.21 µM in the assay with MDA-MB-231 [1], 13.7 µM with A549, 2.45 µM in assay [3] and 10.2 µM in the assay on MDA-MB-468. In the assay with MDA-MB-231 [2], the Activity came to 20.99%.
Taken in the same sequence, the figures for `C/C(=N\NC(=O)c1cccc(Br)c1)c1ccc(C(=O)O)cc1` were 7.5 µM, 7.78 µM, 0.69 µM, 5.51 µM and 19.83%.
In the same order, the values of `CO[C@H]1C[C@@H]2CC[C@@H](C)[C@@](O)(O2)C(=O)C(=O)N2CCCC[C@H]2C(=O)O[C@H]([C@H](C)C[C@@H]2CC[C@@H](OC(=O)C(C)(CO)CO)[C@H](OC)C2)CC(=O)[C@H](C)/C=C(\C)[C@@H](O)[C@@H](OC)C(=O)[C@H](C)C[C@H](C)/C=C/C=C/C=C/1C` [TEMSIROLIMUS] are 17.6 µM, 11.8 µM, 2.29 µM, 10.9 µM and 15.33%.
In the same order, the values of `C/C(=N\NC(=O)c1cccc(Br)c1)c1cc(O)cc(O)c1` are 9.13 µM, 10.3 µM, 8.2 µM, 11 µM and 16.33%.
`C/C(=N\NC(=O)c1ccc(C)c(F)c1)c1ccc(C(=O)Nc2cc(N3CCOCC3)ccn2)cc1`: the concentration for half-maximal inhibition (IC50) in the assay on MDA-MB-231 [1] stood at 13.2 µM; in the assay with A549 it was 13.9 µM; in assay [3], 3.83 µM; in the assay on MDA-MB-468, 12.1 µM. Also, in the assay with MDA-MB-231 [2], the Activity came to 19.22%.
